Test results as given in patent US9777017B2, “Tricyclic fused thiophene derivatives as JAK inhibitors” (Incyte Corporation, priority 2012, dated 2017).
pIC50: −log10 of the molar value. Counter-ions that a name gives are not always drawn.

Legend:
Type in all cases: biochemical
human JAK2 = human JAK2 (Homo sapiens (Human), UniProt O60674); test: In vitro JAK kinase assay (HTRF, phosphorylation of a biotinylated peptide), JAK2; set-up: key to JAK2 IC50 (nM): +indicates an IC50 of ≦100 nM; ++indicates an IC50 of ≦1000 nM; +++indicates an IC50 of ≦2000 nM; ++++indicates an IC50 of >2000 nM; +++++indicates that the IC50 was greater than the highest concentration tested; settings: 1 mM ATP
Sequence of human JAK2 (O60674 828-1132): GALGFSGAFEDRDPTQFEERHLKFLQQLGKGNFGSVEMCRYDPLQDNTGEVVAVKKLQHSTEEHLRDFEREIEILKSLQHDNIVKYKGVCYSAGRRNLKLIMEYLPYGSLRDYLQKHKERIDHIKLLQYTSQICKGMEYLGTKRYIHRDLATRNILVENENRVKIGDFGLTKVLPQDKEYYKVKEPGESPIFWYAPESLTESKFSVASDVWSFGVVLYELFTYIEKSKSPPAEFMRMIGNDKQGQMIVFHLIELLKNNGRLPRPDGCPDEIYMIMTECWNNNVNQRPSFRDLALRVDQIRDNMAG
Method: (§1) Compounds herein were tested for inhibitory activity of JAK targets according to the following in vitro assay described in Park et al., Analytical Biochemistry 1999, 269, 94-104. The catalytic domains of human JAK1 (a.a. 837-1142), JAK2 (a.a. 828-1132) and JAK3 (a.a. 781-1124) were expressed using baculovirus in insect cells and purified. The catalytic activity of JAK1, JAK2 or JAK3 was assayed by measuring the phosphorylation of a biotinylated peptide. The phosphorylated peptide was detected by homogenous time resolved fluorescence (HTRF). IC50s of compounds were measured for each kinase in the 40 μL reactions that contain the enzyme, ATP and 500 nM peptide in 50 mM Tris (pH 7.8) buffer with 100 mM NaCl, 5 mM DTT, and 0.1 mg/mL (0.01%) BSA. For the 1 mM IC50 measurements, ATP concentration in the reactions was 1 mM. Reactions were carried out at room temperature for 1 hour and then stopped with 20 μL 45 mM EDTA, 300 nM SA-APC, 6 nM Eu-Py20 in assay buffer (Perkin Elmer, Boston, Mass.). Binding to the Europium labeled antibody took place for 40 minutes and HTRF signal was measured on a PHERA star plate reader (BMG, Cary, N.C.). The Example compounds were each tested in the Example A assay (see Table 1 for data for the compounds of the examples as tested by the assay of Example A at 1 mM ATP).

human JAK1 [1] = molecular target: human JAK1 (Homo sapiens, UniProt P23458); test: In vitro JAK kinase assay (HTRF, phosphorylation of a biotinylated peptide), JAK1; set-up: key to JAK1 IC50 (nM): +indicates an IC50 of ≦100 nM; ++indicates an IC50 of ≦1000 nM; +++indicates an IC50 of ≦2000 nM; ++++indicates an IC50 of >2000 nM; +++++indicates that the IC50 was greater than the highest concentration tested; settings: 1 mM ATP
Method: as §1

human JAK1 [2] = test: as above; set-up: key to JAK1 IC50 (nM): +indicates an IC50 of ≦100 nM; ++indicates an IC50 of ≦1000 nM; +++indicates an IC50 of ≦2000 nM; ++++indicates an IC50 of >2000 nM; +++++indicates that the IC50 was greater than the highest concentration tested; settings: ratio of IC50s, 1 mM ATP
Method: as §1

Row | pIC50 (human JAK1 [1]) | JAK2/JAK1 (human JAK1 [2]) | JAK2 IC50 (nM) (human JAK2) | JAK1 IC50 (nM) (human JAK1 [1]) | Molecule | pIC50 (human JAK2)
1 | ≥ 7.00 | >10 |  |  | CCc1nc2cnc3ccsc3c2n1[C@H]1CC[C@H](CC#N)CC1 [Example 47, [trans-4-(2-Ethyl-1H-imidazo[4,5-d]thieno[3,2-b]pyridin-1-yl)cyclohexyl]acetonitrile] | ≥ 6.00
2 |  | >10 | +++++ |  | C[C@@H](O)c1nc2cnc3ccsc3c2n1C1CCNCC1F (single isomer, unassigned) [9 (2nd peak)] | 
3 | ≥ 6.00 | >10 | +++++ |  | C[C@@H](O)c1nc2cnc3ccsc3c2n1[C@H]1CCCN(C(=O)CCc2cn[nH]c2)C1 [Example 53, (1R)-1-(1-{(3S)-1-[3-(1H-Pyrazol-4-yl)propanoyl]piperidin-3-yl}-1H-imidazo[4,5-d]thieno[3,2-b]pyridin-2-yl)ethanol] | 
4 | ≥ 6.00 | >10 |  |  | C[C@@H](O)c1nc2cnc3ccsc3c2n1[C@H]1CCCN(C(=O)CCC(F)(F)F)C1 [Example 52, (1R)-1-{1-[(3S)-1-(4,4,4-Trifluorobutanoyl)piperidin-3-yl]-1H-imidazo[4,5-d]thieno[3,2-b]pyridin-2-yl}ethanol] | 
5 |  | >10 |  |  | C[C@@H](O)c1nc2cnc3ccsc3c2n1[C@H]1CC[C@H](CC#N)CC1 [Example 2, (trans-4-{2-[(1R)-1-Hydroxyethyl]-1H-imidazo[4,5-d]thieno[3,2-b]pyridin-1-yl}cyclohexyl)acetonitrile] | 
6 |  |  | +++++ | +++++ | C[C@@H](O)c1nc2cnc3ccsc3c2n1C1CCNCC1F (stereo partly drawn) [9 (1st peak), (1R)-1-[1-(3-Fluoropiperidin-4-yl)-1H-imidazo[4,5-d]thieno[3,2-b]pyridin-2-yl]ethanol] | 
7 | ≥ 6.00 |  |  |  | C[C@@H](O)c1nc2cnc3ccsc3c2n1C1CCC(O)(CC#N)CC1 (single isomer, unassigned) [24 (second peak)] | 
8 | ≥ 7.00 |  |  |  | Cc1nn2cnc3ccsc3c2c1[C@H]1CC[C@H](CC#N)CC1 [Example 77, [trans-4-(8-Methylpyrazolo[1,5-c]thieno[2,3-e]pyrimidin-9-yl)cyclohexyl]acetonitrile] | ≥ 7.00

Row | Molecule | pIC50 (human JAK1 [1]) | JAK2/JAK1 (human JAK1 [2]) | JAK2 IC50 (nM) (human JAK2) | JAK1 IC50 (nM) (human JAK1 [1]) | pIC50 (human JAK2)
9 | CCc1nc2cnc3ccsc3c2n1[C@H]1CC[C@H](CC#N)[C@H](O)C1 (racemic) [Example 35] | ≥ 7.00 |  |  |  | < 5.70
10 | ((1R,2R,4S)-2-Hydroxy-4-{2-[(1R)-1-hydroxyethyl]-1H-imidazo[4,5-d]thieno[3,2-b]pyridin-1-yl}cyclohexyl)acetonitrile and ((1S,2S,4R)-2-hydroxy-4-{2-[(1R)-1-hydroxyethyl]-1H-imidazo[4,5-d]thieno[3,2-b]pyridin-1-yl}cyclohexyl)acetonitrile [36 (first peak)] | ≥ 7.00 | >10 |  |  | < 5.70
11 | Cc1nc2cnc3ccsc3c2n1[C@@H]1CC[C@@H](CC#N)[C@@H](O)C1 (mixture of isomers) [Example 34, Mixture of [(1R,2R,4S)-2-hydroxy-4-(2-methyl-1H-imidazo[4,5-d]thieno[3,2-b]pyridin-1-yl)cyclohexyl]acetonitrile trifluoroacetate and [(1S,2S,4R)-2-hydroxy-4-(2-methyl-1H-imidazo[4,5-d]thieno[3,2-b]pyridin-1-yl)cyclohexyl]acetonitrile trifluoroacetate] |  | >10 |  |  | 
12 | [(1R,2S,4S)-4-(2-Ethyl-1H-imidazo[4,5-d]thieno[3,2-b]pyridin-1-yl)-2-hydroxycyclohexyl]acetonitrile and [(1S,2R,4R)-4-(2-ethyl-1H-imidazo[4,5-d]thieno[3,2-b]pyridin-1-yl)-2-hydroxycyclohexyl]acetonitrile [40 (second peak)] | < 5.70 |  | +++++ |  | 
13 | [(1R,2S,4S)-4-(2-Methyl-1H-imidazo[4,5-d]thieno[3,2-b]pyridin-1-yl)-2-hydroxycyclohexyl]acetonitrile and [(1S,2R,4R)-4-(2-methyl-1H-imidazo[4,5-d]thieno[3,2-b]pyridin-1-yl)-2-hydroxycyclohexyl]acetonitrile [41 (second peak)] | < 5.70 |  | +++++ |  | 
